Results reported in publication PMC5584945, “Evaluation of robenidine analog NCL195 as a novel broad-spectrum antibacterial agent” (PLoS ONE, 2017).
Values after ≈ are worked out from the molar mass of the structure shown.

Key:
[1] = system: vancomycin-resistant enterococci (VRE); experiment: MIC, broth micro-dilution (CLSI); format: cell-based, enterococci (porcine isolates); conditions: for MIC50 / MIC90 / MIC: Enterococcus, VRE
S. pneumoniae D39 [2] = experiment: Minimum bactericidal concentration (MBC); format: cell-based; conditions: Streptococcus pneumoniae, 99.9% colony count reduction, read-out: MBC
S. aureus Xen29 [3] = experiment: Minimum bactericidal concentration (MBC); format: cell-based; conditions: Staphylococcus aureus, 99.9% colony count reduction
Protocol: The tray was covered with Breathe-Easy sealing membrane (Z380059, Sigma-Aldrich) and incubated for 16 h overnight at 35°C in an EnSpire Multimode Plate Reader 2300 (PerkinElmer), with data collected every 20 min and 2 sec agitation at 60 rpm between data (A600 nm) acquisitions. The experiment was repeated using the luminescent D39LUX strain on a Cytation 5 Cell Imaging Multi-Mode Reader (BioTek) using IsoplateTM-96 F tray PerkinElmer, 6005020). Kill kinetic assays on S. aureus Xen29 was carried out essentially as described for MIC determination on Cytation 5 Cell Imaging Multi-Mode Reader.
In order to determine the MBC of each compound against S. pneumoniae D39 or S. aureus Xen29, 10 μl aliquots from each duplicate well from the MIC assays (starting from the MIC for each compound) was inoculated onto a HBA plate and incubated at 37°C (+ 5% CO2 for S. pneumoniae D39). Plates were examined at 24 and 48 h and the MBC was recorded as the lowest concentration of each test compound at which a 99.9% colony count reduction was observed on the plate.

S. aureus Xen29 [4] = experiment: Time-dependent killing assay; format: cell-based, Staphylococcus aureus
Protocol: Time kill assays were performed (in duplicate) essentially as described previously with slight modifications. Briefly, a few colonies of luminescent S. pneumoniae strain D39LUX or luminescent S. aureus ATCC 12600 (Xen29) from an overnight HBA were emulsified in normal saline and adjusted to A600 nm = 0.10 (equivalent to approx. 5 × 10^7 c.f.u. per ml) and the bacterial suspension further diluted 1:20 in saline. […] The compounds were serially diluted in 100% DMSO at 100× the final desired concentration and 100 μl of appropriate concentrations added to each 10 ml preparation. Duplicate cultures were incubated at 37°C (+ 5% CO2 for S. pneumoniae D39), with samples withdrawn at 0, 0.5, 1, 2, 4, 6, 8 and 24 h, serially diluted 10-fold and plated on HBA overnight at 37°C (+ 5% CO2 for S. pneumoniae D39) for bacterial enumeration.

S. pneumoniae D39 [5] = experiment: Membrane potential, DiOC2(3) fluorescence; format: cell-based, Streptococcus pneumoniae; conditions: 16 μg/ml, pre-incubated 5 min; versus untreated and ampicillin
Protocol: (§1) To further examine the mechanism underlying the perturbation of the cell membrane of S. pneumoniae or S. aureus by the NCL compounds, the membrane potential of the cells was measured by fluorescence spectrometry using (DiOC2(3), essentially as described previously. Briefly, […] cells from an overnight HBA plate were grown in Todd-Hewitt broth supplemented with 1% yeast extract (THY) at 37°C, 5% CO2 until A600 nm = 0.5. […] The cuvette was then placed in a LS 55 Fluorescence Spectrometer (PerkinElmer) set at Ex. 488 nm/Em. 620 nm, with excitation and emission slit widths at 5 nm and 7 nm, respectively). […] All assays were performed at least twice.

S. aureus ATCC49775 = experiment: Membrane potential, DiOC2(3) fluorescence; format: cell-based, Staphylococcus aureus; conditions: 16 μg/ml, pre-incubated 5 min; versus untreated and ampicillin
Protocol: as §1

[6] = LogD by gradient HPLC chromatographic method; format: physicochemical; conditions: pH 7.4
[7] = Kinetic solubility by nephelometry; format: physicochemical; conditions: kinetic from dmso stock
MDBK = experiment: In vitro cytotoxicity, WST-1; format: cell-based, bovine; conditions: Bos taurus, 24 h exposure, read-out: IC50 values ± SEM
From the text: In order to ensure minimal off target mammalian cell cytotoxicity, we assayed NCL812, NCL195 and NCL219 for in vitro cytotoxicity using a panel of adherent mammalian cell lines: Caco-2 (human colorectal adenocarcinoma cell line), HEL 299 (non-cancerous human lung fibroblast cell line), Hep G2 (human hepatocellular carcinoma cell line), MDBK (normal bovine kidney cell line) and MCF7 (human mammary gland adenocarcinoma cell line). Cell lines were maintained in Dulbecco’s Modified Eagle’s Medium (DMEM; […] After 24 h incubation, media was removed, washed once with medium without antibiotics and fresh medium supplemented with 10% (vol/vol) FBS was added. […] Following exposure for 24 h, WST-1 reagent was added to each well at a final concentration of 10%. […] The IC50 value for each compound against each cell line was determined via non-linear regression (three parameters) using GraphPad Prism v6 software. The robustness of assays was confirmed with selected cell lines (Hep G2 and MDBK) seeded onto a 96–well Microwell Nunclon Delta Surface plate (Thermo Scientific Nunc; Cat No: 136101) at 5 × 10^4 cells per well.

Hep G2 = experiment: Real-time cell viability, RealTime-Glo MT; format: cell-based, human; conditions: 2 or 8 μg/ml, up to 20 h post-treatment
[8] = S3 Table isolates, absence of FBS

## Cc1ccc(/C=N/Nc2cc(N/N=C/c3ccc(C)cc3)nc(N)n2)cc1 [NCL195, 4,6-bis(2-((E)-4-methylbenzylidene)hydrazinyl)pyrimidin-2-amine]
[1]; 10% FBS versus no FBS
  Fold increase of MIC range in the presence of 10% FBS: 4 fold
[1]; 20 isolates
  MIC range: 2 to 4 µg/mL
[1]; S3 Table isolates, 10% FBS
  MIC50: 16 µg/mL (≈ 44.5 µM)
  MIC90: 32 µg/mL (≈ 89 µM)
  MIC range: 16 to 32 µg/mL
[1]; [8]
  MIC50: 2 µg/mL (≈ 5.56 µM)
  MIC90: 4 µg/mL (≈ 11.1 µM)
  MIC range: 2 to 4 µg/mL
[1]; VRE 1 (49 FR), 10% FBS
  MIC: 16 µg/mL (≈ 44.5 µM)
[1]; VRE 1 (49 FR), absence of FBS
  MIC: 4 µg/mL (≈ 11.1 µM)
[1]; VRE 2 (53 FR), 10% FBS
  MIC: 16 µg/mL (≈ 44.5 µM)
[1]; VRE 2 (53 FR), absence of FBS
  MIC: 2 µg/mL (≈ 5.56 µM)
[1]; VRE 3 (55 FR), 10% FBS
  MIC: 16 µg/mL (≈ 44.5 µM)
[1]; VRE 3 (55 FR), absence of FBS
  MIC: 2 µg/mL (≈ 5.56 µM)
[1]; VRE 4 (57 FR), 10% FBS
  MIC: 16 µg/mL (≈ 44.5 µM)
[1]; VRE 4 (57 FR), absence of FBS
  MIC: 2 µg/mL (≈ 5.56 µM)
[1]; VRE5 (58 FR), 10% FBS
  MIC: 32 µg/mL (≈ 89 µM)
[1]; VRE5 (58 FR), absence of FBS
  MIC: 4 µg/mL (≈ 11.1 µM)
[1]; VRE 6 (59 FR), 10% FBS
  MIC: 16 µg/mL (≈ 44.5 µM)
[1]; VRE 6 (59 FR), absence of FBS
  MIC: 4 µg/mL (≈ 11.1 µM)
[1]; VRE 7 (270 G), 10% FBS
  MIC: 32 µg/mL (≈ 89 µM)
[1]; VRE 7 (270 G), absence of FBS
  MIC: 4 µg/mL (≈ 11.1 µM)
[1]; VRE 8 (277 G), 10% FBS
  MIC: 32 µg/mL (≈ 89 µM)
[1]; VRE 8 (277 G), absence of FBS
  MIC: 4 µg/mL (≈ 11.1 µM)
[1]; VRE 9 (61 FR), 10% FBS
  MIC: 16 µg/mL (≈ 44.5 µM)
[1]; VRE 9 (61 FR), absence of FBS
  MIC: 4 µg/mL (≈ 11.1 µM)
[1]; VRE 10 (62 FR), 10% FBS
  MIC: 16 µg/mL (≈ 44.5 µM)
[1]; VRE 10 (62 FR), absence of FBS
  MIC: 4 µg/mL (≈ 11.1 µM)
[1]; VRE 11 (284 G), 10% FBS
  MIC: 16 µg/mL (≈ 44.5 µM)
[1]; VRE 11 (284 G), absence of FBS
  MIC: 4 µg/mL (≈ 11.1 µM)
[1]; VRE 12 (290 G), 10% FBS
  MIC: 16 µg/mL (≈ 44.5 µM)
[1]; VRE 12 (290 G), absence of FBS
  MIC: 2 µg/mL (≈ 5.56 µM)
[1]; VRE 13 (251 G), 10% FBS
  MIC: 16 µg/mL (≈ 44.5 µM)
[1]; VRE 13 (251 G), absence of FBS
  MIC: 2 µg/mL (≈ 5.56 µM)
[1]; VRE 14 (252 G), 10% FBS
  MIC: 32 µg/mL (≈ 89 µM)
[1]; VRE 14 (252 G), absence of FBS
  MIC: 2 µg/mL (≈ 5.56 µM)
[1]; VRE 15 (63 FR), 10% FBS
  MIC: 16 µg/mL (≈ 44.5 µM)
[1]; VRE 15 (63 FR), absence of FBS
  MIC: 2 µg/mL (≈ 5.56 µM)
[1]; VRE 16 (60 FR), 10% FBS
  MIC: 16 µg/mL (≈ 44.5 µM)
[1]; VRE 16 (60 FR), absence of FBS
  MIC: 2 µg/mL (≈ 5.56 µM)
[1]; VRE 17 (45 FR), 10% FBS
  MIC: 32 µg/mL (≈ 89 µM)
[1]; VRE 17 (45 FR), absence of FBS
  MIC: 2 µg/mL (≈ 5.56 µM)
[1]; VRE 18 (69 W), 10% FBS
  MIC: 16 µg/mL (≈ 44.5 µM)
[1]; VRE 18 (69 W), absence of FBS
  MIC: 2 µg/mL (≈ 5.56 µM)
[1]; VRE 19 (70 W), 10% FBS
  MIC: 16 µg/mL (≈ 44.5 µM)
[1]; VRE 19 (70 W), absence of FBS
  MIC: 2 µg/mL (≈ 5.56 µM)
[1]; VRE 20 (78 W), 10% FBS
  MIC: 32 µg/mL (≈ 89 µM)
[1]; VRE 20 (78 W), absence of FBS
  MIC: 4 µg/mL (≈ 11.1 µM)
S. pneumoniae D39 [2]
  MBC: 8 µg/mL (≈ 22.3 µM)
S. aureus Xen29 [3]
  MBC: 2 µg/mL (≈ 5.56 µM)
S. aureus Xen29 [4]; 2× MIC
  Time to clear all Xen29: 6 h
S. aureus Xen29 [4]; 4× MIC
  Time to clear all Xen29: 6 h
S. aureus Xen29 [4]; at the concentrations tested (2× and 4× MIC)
  Regrowth after 24 h: some S. aureus regrowth was observed
S. pneumoniae D39 [5]
  Effect on generated membrane potential: large reduction in the magnitude of the generated membrane potential
S. aureus ATCC49775
  Effect on generated membrane potential: large reduction in the magnitude of the generated membrane potential
[6]
  chromatographic logD: 4.5
[7]; pH 2.0
  solubility: 3.1 to 6.3 µg/mL (≈ 8.62 to 17.5 µM)
[7]; pH 6.5
  solubility: < 1.6 µg/mL
MDBK
  IC50: 17.3 ± 0.2 µg/mL (≈ 48.1 µM)
Hep G2
  Effect on cell viability (real-time): no measurable effect on cell viability
